Our source for the IC50 values is patent publication US20240050577A1, “CDK INHIBITORS AND PHARMACEUTICAL USES THEREOF” (RISEN (SUZHOU) PHARMA TECH CO., LTD., priority 2022, published 2024).

In the experiment the test system is OVCAR3 cells. In words: Cell proliferation study (Cell Titer Glo, 72 h). Particulars: Homo sapiens, OVCAR-3, luminescence, read-out: IC50, inhibitory effect on cellular proliferation. The experiment is classed as cell-based. The protocol:
OVCAR3 (Cobioer, CBP60294) cell line in logarithmic growth phase was used for these experiments. The cell density was adjusted to 1.1×10^4/mL and the cells were inoculated into a 96-well cell culture plate (Corning, 3599), 95 μL per well (the number of cells per well was 1×10^3). The culture plate was placed in an incubator, with 5% carbon dioxide, at 37° C. and incubated overnight. On the next day, a 10 mM stock solution of test compound was prepared in DMSO (Sigma, RNBF5902). After gradient dilution, a series of working solutions with different concentrations of test compound was prepared using complete medium. Working solution was added into the corresponding wells of the orifice plate, and the plate was placed in a 5% carbon dioxide incubator and cultivated at 37° C. for 72 h, and then removed from the incubator. To each well was added 50 μL Cell Tier Glo (Promega, G7573), and the plate was incubated at room temperature for 10 min, followed by luminescence detection with an enzyme marker. The inhibition curve was obtained with GraphPad 7.0 software using four-parameter equation.
As to `Cc1nc2c(F)cc(-c3nc(Nc4ccc(NS(=O)(=O)CCNC(=O)CO[C@@H]5C[C@H](C)CC[C@H]5C(C)C)cc4)ncc3F)cc2n1C(C)C` (racemic) [Compound 26], the IC50 was in the range of 1000 to 5000 nM. With `CC(C)N1CCOc2c(F)cc(-c3nc(Nc4ccc(S(N)(=O)=O)cc4)ncc3F)cc21` [Compound 31] the figure was 101 to 1000 nM; with `Cc1nc2c(F)cc(-c3nc(NC4CCN(S(=O)(=O)C5CCN(C(=O)C6CCN(c7cc8c(cc7F)C(=O)N(C7CCC(=O)NC7=O)C8=O)CC6)CC5)CC4)ncc3F)cc2n1C(C)C` (stereo not drawn) [Compound 74], 1000 to 5000 nM; with `Cc1nc2c(F)cc(-c3nc(Nc4ccc(S(=O)(=O)C5CCN(CC6CCN(C7CN(c8cc9c(cc8F)C(=O)N(C8CCC(=O)NC8=O)C9=O)C7)CC6)CC5)cc4)ncc3F)cc2n1C(C)C` (stereo not drawn) [Compound 65], 101 to 1000 nM.

On to `C[C@@]1(O)CCC[C@H]1n1c(=O)ccc2cnc(NC3CCN(S(=O)(=O)C4CCN(CC5CCC6(CC5)CCN(c5cc7c(cc5F)C(=O)N(C5CCC(=O)NC5=O)C7=O)CC6)CC4)CC3)nc21` (stereo partly drawn) [Compound 90], for which the IC50 is 101 to 1000 nM.

As to `Cc1nc2c(F)cc(-c3nc(N[C@@H]4CCN(S(=O)(=O)C5CCN(CC6CCN(c7cc8c(cc7F)C(=O)N(C7CCC(=O)NC7=O)C8=O)CC6)CC5)C[C@H]4O)ncc3F)cc2n1C(C)C` (stereo partly drawn) [Compound 111], the IC50 was under 100 nM.

In the case of `Cc1nc2c(F)cc(-c3nc(Nc4ccc(S(=O)(=O)C5CCN(C6CC7(CCN(c8cc9c(cc8F)C(=O)N(C8CCC(=O)NC8=O)C9=O)CC7)C6)CC5)cc4)ncc3F)cc2n1C(C)C` (stereo not drawn) [Compound 46], the IC50 was 101 to 1000 nM.

`Cc1nc2c(F)cc(-c3nc(Nc4ccc(S(=O)(=O)NCCOCCNc5cc6c(cc5F)C(=O)N(C5CCC(=O)NC5=O)C6=O)cc4)ncc3F)cc2n1C(C)C` (stereo not drawn) [Compound 70]: the IC50 was 101 to 1000 nM. With `C[C@@]1(O)CCC[C@H]1n1c(=O)ccc2cnc(Nc3ccc(S(=O)(=O)N4CCC5(CCN(C6CN(c7cc8c(cc7F)C(=O)N(C7CCC(=O)NC7=O)C8=O)C6)CC5)CC4)cc3)nc21` (stereo partly drawn) [Compound 58] the figure was 1000 to 5000 nM; with `Cc1nc2c(F)cc(-c3nc(NC4CCN(S(=O)(=O)C5CCN(CC6CC(N7CCC(c8ccc9c(C%10CCC(=O)NC%10=O)nn(C)c9c8)CC7)C6)CC5)CC4)ncc3F)cc2n1C(C)C` (stereo not drawn) [Compound 103], under 100 nM; with `Cc1nc2c(F)cc(-c3nc(NC4CCN(S(=O)(=O)C5CCN(CCC6CCN(c7cc8c(cc7F)C(=O)N(C7CCC(=O)NC7=O)C8=O)CC6)CC5)CC4)ncc3F)cc2n1C(C)C` (stereo not drawn) [Compound 104], 101 to 1000 nM.

Regarding `Cc1nc2c(F)cc(-c3nc(Nc4ccc(S(=O)(=O)C5CCN(CC6CCN(c7cc8c(cc7F)C(=O)N(C7CCC(=O)NC7=O)C8=O)CC6)CC5)cc4)ncc3F)cc2n1C(C)C` (stereo not drawn) [Compound 110], the IC50 lay in the range of 101 to 1000 nM. Take `CC(C)[C@@H]1CC[C@@H](C)C[C@H]1OCC(=O)NCCS(=O)(=O)N1CCC(Nc2ncc(F)c(-c3cc(F)c4c(c3)N(C(C)C)CCO4)n2)CC1` [Compound 27]: the IC50 was over 10000 nM. With `Cc1nc2c(F)cc(-c3nc(Nc4ccc(S(=O)(=O)N5CCC6(CCN(C(=O)CNc7cc8c(cc7F)C(=O)N(C7CCC(=O)NC7=O)C8=O)CC6)CC5)cc4)ncc3F)cc2n1C(C)C` (stereo not drawn) [Compound 105] the figure was 101 to 1000 nM; with `CC(C)N1CCOc2c(F)cc(-c3nc(Nc4ccc(C5CCN(CCOCCOCCNc6cccc7c6C(=O)N(C6CCC(=O)NC6=O)C7=O)CC5)cn4)ncc3F)cc21` (stereo not drawn) [Compound 2], over 10000 nM.

Take `Cc1nc2c(F)cc(-c3nc(Nc4ccc(S(=O)(=O)N5CC(C(=O)N6CCC7(CC6)CCN(c6cccc8c6C(=O)N(C6CCC(=O)NC6=O)C8=O)CC7)C5)cc4)ncc3F)cc2n1C(C)C` (stereo not drawn) [Compound 40]: the IC50 was over 10000 nM. With `CC(C)N1CCOc2c(F)cc(-c3nc(Nc4ccc(C5CCN(C6CC7(CCN(c8cc9c(cc8F)C(=O)N(C8CCC(=O)NC8=O)C9=O)CC7)C6)CC5)cn4)ncc3F)cc21` (stereo not drawn) [Compound 18, 2-(2,6-dioxo-3-piperidyl)-5-fluoro-6-[2-[4-[6-[[5-fluoro-4-(8-fluoro-4-isopropyl-2,3-dihydro-1,4-benzoxazin-6-yl)pyrimidin-2-yl]amino]-3-pyridyl]-1-piperidyl]-7-azaspiro[3.5]nonan-7-yl]isoindoline-1,3-dione] the figure was over 10000 nM; with `CC(C)N1CCOc2c(F)cc(-c3nc(Nc4ccc(S(=O)(=O)N5CCN(C(=O)C6CCN(c7cccc8c7C(=O)N(C7CCC(=O)NC7=O)C8=O)CC6)CC5)cc4)ncc3F)cc21` (stereo not drawn) [Compound 53], over 10000 nM.

Regarding `Cc1nc2c(F)cc(-c3nc(Nc4ccc(S(=O)(=O)N5CCC6(CCN(CC7CCN(c8cc9c(cc8F)C(=O)N(C8CCC(=O)NC8=O)C9=O)CC7)CC6)CC5)cc4)ncc3F)cc2n1C(C)C` (stereo not drawn) [Compound 106], the IC50 is 1000 to 5000 nM.

Consider `C[C@@]1(O)CCC[C@H]1n1c(=O)c(C(F)F)cc2cnc(NC3CCN(S(=O)(=O)C4CCN(C5CC6(CCN(c7cc8c(cc7F)C(=O)N(C7CCC(=O)NC7=O)C8=O)CC6)C5)CC4)CC3)nc21` (stereo partly drawn) [Compound 35], for which the IC50 fell in the range of 101 to 1000 nM.

`CC(C)N1CCOc2c(F)cc(-c3nc(NC4CCN(S(=O)(=O)C5CCN(C6CC7(CCN(c8cc9c(cc8F)C(=O)N(C8CCC(=O)NC8=O)C9=O)CC7)C6)CC5)CC4)ncc3F)cc21` (stereo not drawn) [Compound 51]: the IC50 was over 10000 nM.

As for `C[C@@]1(O)CCC[C@H]1n1c(=O)ccc2cnc(NC3CCN(S(=O)(=O)C4CCN(CC5CCN(c6cc7c(cc6F)C(=O)N(C6CCC(=O)NC6=O)C7=O)CC5)CC4)CC3)nc21` (stereo partly drawn) [Compound 93], the IC50 lay within 1000 to 5000 nM. With `C[C@@]1(O)CCC[C@H]1n1c(=O)ccc2cnc(NC3CCN(S(=O)(=O)C4CCN(C5CCC6(CCN(c7cc8c(cc7F)C(=O)N(C7CCC(=O)NC7=O)C8=O)CC6)C5)CC4)CC3)nc21` (stereo partly drawn) [Compound 81] the figure was 101 to 1000 nM; with `C[C@@]1(O)CCC[C@H]1n1c(=O)ccc2cnc(NC3CCN(S(=O)(=O)C4CCN(C5CC6(CCN(c7cccc8c7C(=O)N(C7CCC(=O)NC7=O)C8=O)CC6)C5)CC4)CC3)nc21` (stereo partly drawn) [Compound 107], 101 to 1000 nM; with `Cc1nc2c(F)cc(-c3nc(NC4CCN(S(=O)(=O)C5CCN(CC6CCN(c7cc8c(cc7F)C(=O)N(C7CCC(=O)NC7=O)C8=O)CC6)CC5)CC4)ncc3F)cc2n1C(C)C` (stereo not drawn) [Compound 71], under 100 nM.

With `Cc1nc2c(F)cc(-c3nc(NC4CCN(S(=O)(=O)C5CCN(CC6CC(N7CCC(c8cccc(C9CCC(=O)NC9=O)c8)CC7)C6)CC5)CC4)ncc3F)cc2n1C(C)C` (stereo not drawn) [Compound 102], the IC50 was 101 to 1000 nM. With `Cc1nc2c(F)cc(-c3nc(Nc4ccc(S(=O)(=O)N5CCN(CC6CCN(c7ccc8c(c7)C(=O)N(C7CCC(=O)NC7=O)C8=O)CC6)CC5)cc4)ncc3F)cc2n1C(C)C` (stereo not drawn) [Compound 68] the figure was 101 to 1000 nM. With `C[C@@]1(O)CCC[C@H]1n1c(=O)ccc2cnc(Nc3ccc(S(=O)(=O)C4CCN(C5CC6(CCN(c7cc8c(cc7F)C(=O)N(C7CCC(=O)NC7=O)C8=O)CC6)C5)CC4)cc3)nc21` (stereo partly drawn) [Compound 22], the IC50 is over 10000 nM. As for `Cc1ccsc1C(=O)n1nc(Nc2ccc(S(=O)(=O)NCCOCc3cn(CCOCCOCCNc4cccc5c4C(=O)N(C4CCC(=O)NC4=O)C5=O)nn3)cc2)nc1N` (stereo not drawn) [Compound 32], the IC50 was over 10000 nM. With `Cc1nc2c(F)cc(-c3nc(NC4CCN(S(=O)(=O)C5CN(CC6CCN(c7cc8c(cc7F)C(=O)N(C7CCC(=O)NC7=O)C8=O)CC6)C5)CC4)ncc3F)cc2n1C(C)C` (stereo not drawn) [Compound 100] the figure was 101 to 1000 nM; with `C[C@@]1(O)CCC[C@H]1n1c(=O)ccc2cnc(NC3CCN(S(=O)(=O)C4CCN(C(=O)C5CC6(CCN(c7cc8c(cc7F)C(=O)N(C7CCC(=O)NC7=O)C8=O)CC6)C5)CC4)CC3)nc21` (stereo partly drawn) [Compound 77], 1000 to 5000 nM. As to `C[C@@]1(O)CCC[C@H]1n1c(=O)ccc2cnc(Nc3ccc(S(=O)(=O)C4CCN(C5CN(C6CCN(c7cc8c(cc7F)C(=O)N(C7CCC(=O)NC7=O)C8=O)CC6)C5)CC4)cc3)nc21` (stereo partly drawn) [Compound 59], the IC50 was 1000 to 5000 nM. Turning to `C[C@@]1(O)CCC[C@H]1n1c(=O)ccc2cnc(Nc3ccc(S(=O)(=O)C4CCN(C5CCC6(CC5)CN(c5cc7c(cc5F)C(=O)N(C5CCC(=O)NC5=O)C7=O)C6)CC4)cc3)nc21` (stereo partly drawn) [Compound 45], the IC50 is over 10000 nM. With `Cc1nc2c(F)cc(-c3nc(Nc4ccc(S(=O)(=O)NCCOCCNc5cccc6c5C(=O)N(C5CCC(=O)NC5=O)C6=O)cc4)ncc3F)cc2n1C(C)C` (stereo not drawn) [Compound 47] the figure was 1000 to 5000 nM; with `Cc1nc2c(F)cc(-c3nc(NC4CCN(S(=O)(=O)C5CCN(CC6CC7CCC(C6)N7C6CN(c7cc8c(cc7F)C(=O)N(C7CCC(=O)NC7=O)C8=O)C6)CC5)CC4)ncc3F)cc2n1C(C)C` (stereo not drawn) [Compound 101], under 100 nM. With `C[C@@]1(O)CCC[C@H]1n1c(=O)ccc2cnc(Nc3ccc(S(=O)(=O)C4CCN(CC5CCN(c6cc7c(cc6F)C(=O)N(C6CCC(=O)NC6=O)C7=O)CC5)CC4)cc3)nc21` (stereo partly drawn) [Compound 23] the figure was over 10000 nM. With `CC(C)N1CCOc2c(F)cc(-c3nc(Nc4ccc(S(=O)(=O)N5CCN(CC6CCN(c7ccc8c(c7)C(=O)N(C7CCC(=O)NC7=O)C8=O)CC6)CC5)cc4)ncc3F)cc21` (stereo not drawn) [Compound 33] the figure was over 10000 nM; with `Cc1nc2c(F)cc(-c3nc(NC4CCN(S(=O)(=O)C5CCN(CC6CCN(c7cc8c(cc7F)C(=O)N(C7CCC(=O)NC7=O)C8=O)C6)CC5)CC4)ncc3F)cc2n1C(C)C` (stereo not drawn) [Compound 108], under 100 nM. Take `C[C@@]1(O)CCC[C@H]1n1c(=O)c(Cl)cc2cnc(NC3CCN(S(=O)(=O)C4CCN(C5CC6(CCN(c7cc8c(cc7F)C(=O)N(C7CCC(=O)NC7=O)C8=O)CC6)C5)CC4)CC3)nc21` (stereo partly drawn) [Compound 34]: the IC50 was over 10000 nM.
